Earlier results on two compounds are cited in patent publication US7771757B2, “Nasal irrigation solutions and methods of using same” (Himalayan International Institute of Yoga Science and …, priority 2002, dated 2010).

Series [1] concerns common cold. The following applies: variously administered forms; in many cases.
Series [2] deals with streptococci.
The test system of series [3] is staphylococci.
Series [4] deals with pneumococci.

Consider zinc, for which the “reduction of the duration of common cold symptoms” value in series [1] is on record as “by half”.

Consider `COc1ccc2cc3[n+](cc2c1OC)CCc1cc2c(cc1-3)OCO2` [berberine], for which the “activity in vitro against the growth of organisms” value in series [2], in series [3] and in series [4] was “active” in each case.
